In US8653096B2, “Chemokine receptor antagonists and methods of use thereof” (Millennium Pharmaceuticals, Inc., priority 2001, dated 2014):

Molecular target: T1, RANTES/MIP-1α chemokine receptor (CCR1) in THP-1 cell membranes (Homo sapiens, UniProt P32246)
T1 construct: Membranes were prepared from THP-1 cells (ATCC #TIB202); host or cells: THP-1 cells (membrane preparation)
T1 sequence (P32246 1-355): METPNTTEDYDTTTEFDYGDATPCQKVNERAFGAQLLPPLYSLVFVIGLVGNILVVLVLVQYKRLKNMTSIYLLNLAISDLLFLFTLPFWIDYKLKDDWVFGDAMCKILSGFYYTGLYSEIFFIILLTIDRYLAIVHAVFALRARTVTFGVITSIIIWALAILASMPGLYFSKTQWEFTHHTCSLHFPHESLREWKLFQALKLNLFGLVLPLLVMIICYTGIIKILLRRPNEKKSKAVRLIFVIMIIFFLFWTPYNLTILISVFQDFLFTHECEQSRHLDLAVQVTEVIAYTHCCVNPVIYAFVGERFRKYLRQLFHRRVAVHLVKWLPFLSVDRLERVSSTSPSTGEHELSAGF
Assay: Receptor binding assay: 125I-RANTES or 125I-MIP-1α binding to THP-1 cell membranes
Settings: inhibitor concentration required for 50% inhibition of specific binding; 125I-RANTES or 125I-MIP-1α as ligand, THP-1 cell membranes; read-out: IC50

SMILES | IC50 [nM]
NCc1ccc2c(c1)C(=CCCN1CCC(O)(c3ccc(Cl)cc3)CC1)c1ccccc1CO2 [Example 29, 1-[3-(2-Aminomethyl-6,11-dihydrodibenz[b,e]oxepin-11-ylidene)propyl]-4-(4-chlorophenyl)piperidin-4-ol] | < 1000
O=[N+]([O-])c1ccc2c(c1)C(=CCCN1CCC(O)(c3ccc(Cl)cc3)CC1)c1ccccc1CO2 [Example 30, 4-(4-Chlorophenyl)-1-[3-(6,11-dihydro-2-nitrodibenz[b,e]oxepin-11-ylidene)propyl]piperidin-4-ol] | < 1000
Nc1ccc2c(c1)C(=CCCN1CCC(O)(c3ccc(Cl)cc3)CC1)c1ccccc1CO2 [Example 31, 1-[3-(2-Amino-6,11-dihydrodibenz[b,e]oxepin-11-ylidene)propyl]-4-(4-chlorophenyl)piperidin-4-ol] | < 1000
Oc1ccc2c(c1)C(=CCCN1CCC(O)(c3ccc(Cl)cc3)CC1)c1ccccc1CO2 [Example 32, 4-(4-Chlorophenyl)-1-[3-(6,11-dihydro-2-hydroxydibenz[b,e]oxepin-11-ylidene)propyl]piperidin-4-ol] | < 1000
COc1ccc2c(c1)C(=CCCN1CCC(O)(c3ccc(Cl)cc3)CC1)c1ccccc1CO2 [Example 33, 4-(4-Chlorophenyl)-1-[3-(6,11-dihydro-2-methoxydibenz[b,e]oxepin-11-ylidene)propyl]piperidin-4-ol] | < 1000
CCOc1ccc2c(c1)C(=CCCN1CCC(O)(c3ccc(Cl)cc3)CC1)c1ccccc1CO2 [Example 34, 4-(4-Chlorophenyl)-1-[3-(6,11-dihydro-2-ethoxydibenz[b,e]oxepin-11-ylidene)propyl]piperidin-4-ol] | < 1000
OC1(c2ccc(Cl)cc2)CCN(CCC=C2c3ccccc3COc3cc(Br)ccc32)CC1 [Example 35, 1-[3-(3-Bromo-6,11-dihydrodibenz [b,e]oxepin-11-ylidene)propyl]-4-(4-chlorophenyl)piperidin-4-ol] | < 1000
COC1(c2ccc(Cl)cc2)CCN(CCC=C2c3ccccc3COc3ccccc32)CC1 [Example 36, 4-(4-Chlorophenyl)-1-[3-(6,11-dihydrodibenz[b,e]oxepin-11-ylidene)propyl]-4-methoxypiperidine] | < 1000
OC1(c2ccc(Cl)cc2)CCN(CCC=C2c3cc(Br)ccc3OCc3ccsc32)CC1 [Example 38, 1-[3-(8-Bromo-4,10-dihydrothieno[3,2-c][1]benzoxepin-10-ylidene)propyl]piperidin-4-(4-chlorophenyl)-4-ol] | < 1000
O=C1Nc2ccccc2C(=CCCN2CCC(O)(c3ccc(Cl)cc3)CC2)c2ccccc21 [Example 39, 4-(4-Chlorophenyl)-1-[3-(6,11-dihydro-6-oxo-5H-dibenz[b,e]azepin-11-ylidene)propyl]piperidin-4-ol] | < 10000
CCN1C(=O)c2ccccc2C(=CCCN2CCC(O)(c3ccc(Cl)cc3)CC2)c2ccccc21 [Example 40, 4-(4-Chlorophenyl)-1-[3-(6,11-dihydro-5-ethyl-6-oxo-5H-dibenz[b,e]azepin-11-ylidene)propyl]piperidin-4-ol] | < 1000
CCCCN1C(=O)c2ccccc2C(=CCCN2CCC(O)(c3ccc(Cl)cc3)CC2)c2ccccc21 [Example 41, 1-[3-(5-n-Butyl-6,11-dihydro-6-oxo-5H-dibenz[b,e]azepin-11-ylidene)propyl]-4-(4-chlorophenyl)-piperidin-4-ol] | < 1000
O=C1c2ccccc2C(=CCCN2CCC(O)(c3ccc(Cl)cc3)CC2)c2ccccc2N1CCCO [Example 42, 4-(4-Chlorophenyl)-1-[3-(6,11-dihydro-5-(3-hydroxypropyl)-6-oxo-5H-dibenz[b,e]azepin-11-ylidene)propyl]piperidin-4-ol] | < 1000
CC(C)(C)OC(=O)CN1C(=O)c2ccccc2C(=CCCN2CCC(O)(c3ccc(Cl)cc3)CC2)c2ccccc21 [Example 43, 1-[3-(5-tert-Butoxycarbonymethyl-6,11-dihydro-6-oxo-5H-dibenz[b,e]azepin-11-ylidene)propyl]-4-(4-chlorophenyl)-piperidin-4-ol] | < 10000
O=C1Nc2ncccc2C(=CCCN2CCC(O)(c3ccc(Cl)cc3)CC2)c2ccccc21 [Example 55, 4-(4-Chlorophenyl)-1-[3-(10,11-dihydro-10-oxo-5H-pyrido[2,3-c][2]benzazepin-5-ylidene)propyl]piperidin-4-ol] | < 1000
CN1C(=O)c2ccccc2C(=CCCN2CCC(O)(c3ccc(Cl)cc3)CC2)c2cccnc21 [Example 56, 4-(4-Chlorophenyl)-1-[3-(10,11-dihydro-11-methyl-10-oxo-5H-pyrido[2,3-c][2]benzazepin-5-ylidene)propyl]piperidin-4-ol] | < 1000
COc1ccc2c(c1)C(=CCN1CCC(O)(c3ccc(Cl)cc3)CC1)c1cccnc1CO2 [Example 57, 4-(4-Chlorophenyl)-1-[3-(5,11-dihydro-7-methoxy[1]benzoxepino [2,3-b]pyridin-5-ylidene)ethyl]piperidin-4-ol] | < 10000

SMILES | IC50 [nM]
COc1ccc2c(c1)C(=CCCN1CCC(O)(c3ccccc3)CC1)c1cccnc1CO2 [Example 59, 1-[3-(5,11-Dihydro-7-methoxy[1]benzoxepino[2,3-b]pyridin-5-ylidene)propyl]piperidin-4-phenyl-4-ol] | < 1000
COc1ccc2c(c1)C(=CCCN1CCC(n3c(=O)[nH]c4ccccc43)CC1)c1cccnc1CO2 [Example 67, 1-[3-(5,11-Dihydro-7-methoxy[1]benzoxepino[2,3-b]pyridin-5-ylidene)propyl]-4-(2-keto-1-benzimidazolinyl)piperidine] | < 1000
COc1ccc2c(c1)C(=CCCN1CCC(n3c(=O)n(C)c4ccccc43)CC1)c1cccnc1CO2 [Example 68, 1-[3-(5,11-Dihydro-7-methoxy[1]benzoxepino[2,3-b]pyridin-5-ylidene)propyl]-4-(2-keto-3-methyl-1-benzimidazolinyl)piperidine] | < 10000
COc1ccc2c(c1)C(=CCCN1CCC(O)(c3ccc(C)cc3)CC1)c1cccnc1CO2 [Example 78, 1-[3-(5,11-Dihydro-7-methoxy[1]benzoxepino[2,3-b]pyridin-5-ylidene)propyl]-4-(p-toly)piperidin-4-ol] | < 1000
COc1ccc2c(c1)C(=CCCN1CCN(S(=O)(=O)c3ccc(C)cc3)CC1)c1cccnc1CO2 [Example 89, 1-[3-(5,11-Dihydro-7-methoxy[1]benzoxepino[2,3-b]pyridin-5-ylidene)propyl]-4-(p-tosyl)piperazine] | > 10000
CN(C)CCOc1ccc2c(c1)C(=CCCN1CCC(O)(c3ccc(Cl)cc3)CC1)c1cccnc1CO2 [Example 131] | < 1000
OC1(c2ccc(Cl)cc2)CCN(CCC=C2c3cc(OCc4nnn[nH]4)ccc3OCc3ncccc32)CC1 [Example 132] | < 1000
CCOC(=O)COc1ccc2c(c1)C(=CCCN1CCC(c3ccc(Cl)cc3)CC1)c1cccnc1CO2 [Example 153, 4-(4-Chlorophenyl)-1-[3-(5,11-dihydro-7-thoxycarbonylmethyloxy[1]benzoxepino[2,3-b]pyridin-5-ylidene)propyl]piperidine] | < 1000
O=C(O)COc1ccc2c(c1)C(=CCCN1CCC(c3ccc(Cl)cc3)CC1)c1cccnc1CO2 [Example 154] | < 1000
COCCOc1ccc2c(c1)C(=CCCN1CCC(O)(c3ccc(Cl)cc3)CC1)c1cccnc1CO2 [Example 175] | < 1000
CN(C)C(=O)C(C)(C)Oc1ccc2c(c1)C(=CCCN1CCC(O)(c3ccc(Cl)cc3)CC1)c1cccnc1CO2 [Example 176, 4-(4-Chlorophenyl)-1-[3-(7-(1-dimethyaminocarbonyl-1-methyl)ethyloxy-5,11-dihydro[1]benzoxepino[2,3-b]pyridin-5-ylidene)propyl]piperidin-4-ol] | < 1000
O=C(O)C1(Oc2ccc3c(c2)C(=CCCN2CCC(O)(c4ccc(Cl)cc4)CC2)c2cccnc2CO3)CCC1 [Example 180, 1-[3-(7-(1-Carboxy)cyclbutoxy-5,11-dihydro[1]benzoxepino[2,3-b]pyridin-5-ylidene)propyl]-4-(4-chlorophenyl)piperidin-4-ol] | < 1000
Oc1ccc2c(c1)C(=CCCN1CC=C(c3ccc(Cl)cc3)CC1)c1cccnc1CO2 [Example 193] | < 1000
CC(C)(CO)Oc1ccc2c(c1)C(=CCCN1CCC(O)(c3ccc(Cl)cc3)CC1)c1cccnc1CO2 [Example 199, 4-(4-Chlorophenyl)-1-[3-(7-(2-(1-hydroxy-2-methyl)propyl)oxy-5,11-dihydro[1]benzoxepino[2,3-b]pyridin-5-ylidene)propyl]piperidin-4-ol] | < 1000
CC(C)(O)COc1ccc2c(c1)C(=CCCN1CCC(O)(c3ccc(Cl)cc3)CC1)c1cccnc1CO2 [Example 200, 4-(4-Chlorophenyl)-1-[3-(7-(1-(2-methyl-2-hydroxy)propyl)oxy-5,11-dihydro[1]benzoxepino[2,3-b]pyridin-5-ylidene)propyl]piperidin-4-ol] | < 1000
CCOCCOc1ccc2c(c1)C(=CCCN1CCC(O)(c3ccc(Cl)cc3)CC1)c1cccnc1CO2 [Example 203] | < 1000
OCC(O)COc1ccc2c(c1)C(=CCCN1CCC(O)(c3ccc(Cl)cc3)CC1)c1cccnc1CO2 (stereo not shown) [Example 205, 4-(4-Chlorophenyl)-1-[3-(5,11-dihydro-7-(1-(2,3-dihydroxy)propyloxy)[1]benzoxepino[2,3-b]pyridin-5-ylidene)propyl]piperidin-4-ol] | < 1000
